Assay results published in ChEMBL document CHEMBL3414551, “Selective inhibitors of protein methyltransferases” (J Med Chem, 2015).

Key:
REH = test: cells; conditions: Homo sapiens
cells [1] = conditions: Homo sapiens, HL-60
697 = test: cells; conditions: Homo sapiens
cells [2] = conditions: Homo sapiens, U-937
Jurkat = test: cells; conditions: Homo sapiens
Kasumi 1 = test: cells; conditions: Homo sapiens
[3] = target: Histone-lysine N-methyltransferase EZH2 (Homo sapiens, UniProt Q15910, Y641F); test: Inhibition of N-terminal FLAG tagged human EZH2 Y641F mutant expressed in baculovirus infected Sf9 cells using H3K27 as substrate after 120 mins by mass spectrophotometric analysis
[4] = target: T1, Histone-lysine N-methyltransferase EZH2 (Homo sapiens, UniProt Q15910); test: Inhibition of N-terminal FLAG tagged full-length human EZH2 expressed in baculovirus infected Sf9 cells using H3K27 as substrate after 120 mins by mass spectrophotometric analysis
[5] = target: T1, Histone-lysine N-methyltransferase EZH2; test: Inhibition of N-terminal FLAG tagged full-length human EZH2 expressed in baculovirus infected Sf9 cells using H3K27 as substrate in presence of SAM
[6] = target: N-lysine methyltransferase SMYD2 (Homo sapiens, UniProt Q9NRG4); test: Binding affinity to recombinant human full-length SMYD2 (1 to 433) by ITC analysis
[7] = target: T1, Histone-lysine N-methyltransferase EZH2; test: Inhibition of EZH2 (unknown origin) using biotinylated-histone H3 (1 to 24) as substrate after 1 hr by scintillation proximity assay in presence of [3H]-SAM
Mus musculus = test: Cmax in Swiss albino mouse at 50 mg/kg, po; assay type: ADME, organism-based; parameters: dose 50 mg/kg, route oral; conditions: in vivo
Homo sapiens [8] = organism: Homo sapiens; test: Selectivity ratio of IC50 for N-terminal His6-tagged human PRMT1 (10 to 352) to IC50 for N-terminal His6-tagged human SETD8 (191 to 352)
Homo sapiens [9] = organism: Homo sapiens; test: Selectivity ratio of IC50 for human SMYD2 to IC50 for N-terminal His6-tagged human SETD8 (191 to 352)
Homo sapiens [10] = organism: Homo sapiens; test: Selectivity ratio of IC50 for N-terminal His6-tagged human PRMT3 (211 to 531) to IC50 for N-terminal His6-tagged human SETD8 (191 to 352)
[11] = target: T2, N-lysine methyltransferase KMT5A (Homo sapiens, UniProt Q9NQR1); test: Inhibition of N-terminal His6-tagged human SETD8 (191 to 352) assessed as incorporation of [3H]-methyl group from [3H-Me]-SAM to biotinylated H4K20 peptide substrate preincubated for 10 mins followed by substrate addition by liquid scintillation counting analysis
T2 sequence (Q9NQR1 whole entry): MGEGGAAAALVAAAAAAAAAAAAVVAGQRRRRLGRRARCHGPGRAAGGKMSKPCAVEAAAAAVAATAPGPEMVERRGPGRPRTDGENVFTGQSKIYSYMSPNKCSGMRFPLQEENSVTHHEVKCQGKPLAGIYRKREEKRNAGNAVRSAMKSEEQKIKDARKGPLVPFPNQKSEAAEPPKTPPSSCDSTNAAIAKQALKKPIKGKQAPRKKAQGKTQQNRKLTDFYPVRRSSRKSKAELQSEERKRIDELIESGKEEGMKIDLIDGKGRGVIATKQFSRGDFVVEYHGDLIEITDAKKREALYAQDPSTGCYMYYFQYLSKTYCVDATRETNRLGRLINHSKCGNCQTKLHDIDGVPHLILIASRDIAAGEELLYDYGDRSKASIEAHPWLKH

[12] = target: T3, Histone-lysine N-methyltransferase EHMT2 (Homo sapiens, UniProt Q96KQ7); test: Inhibition of G9a (unknown origin) using SAM/biotinylated H3 as substrate preincubated for 1 hr followed by substrate addition measured after 2 hrs by ELISA
T3 sequence (Q96KQ7 whole entry): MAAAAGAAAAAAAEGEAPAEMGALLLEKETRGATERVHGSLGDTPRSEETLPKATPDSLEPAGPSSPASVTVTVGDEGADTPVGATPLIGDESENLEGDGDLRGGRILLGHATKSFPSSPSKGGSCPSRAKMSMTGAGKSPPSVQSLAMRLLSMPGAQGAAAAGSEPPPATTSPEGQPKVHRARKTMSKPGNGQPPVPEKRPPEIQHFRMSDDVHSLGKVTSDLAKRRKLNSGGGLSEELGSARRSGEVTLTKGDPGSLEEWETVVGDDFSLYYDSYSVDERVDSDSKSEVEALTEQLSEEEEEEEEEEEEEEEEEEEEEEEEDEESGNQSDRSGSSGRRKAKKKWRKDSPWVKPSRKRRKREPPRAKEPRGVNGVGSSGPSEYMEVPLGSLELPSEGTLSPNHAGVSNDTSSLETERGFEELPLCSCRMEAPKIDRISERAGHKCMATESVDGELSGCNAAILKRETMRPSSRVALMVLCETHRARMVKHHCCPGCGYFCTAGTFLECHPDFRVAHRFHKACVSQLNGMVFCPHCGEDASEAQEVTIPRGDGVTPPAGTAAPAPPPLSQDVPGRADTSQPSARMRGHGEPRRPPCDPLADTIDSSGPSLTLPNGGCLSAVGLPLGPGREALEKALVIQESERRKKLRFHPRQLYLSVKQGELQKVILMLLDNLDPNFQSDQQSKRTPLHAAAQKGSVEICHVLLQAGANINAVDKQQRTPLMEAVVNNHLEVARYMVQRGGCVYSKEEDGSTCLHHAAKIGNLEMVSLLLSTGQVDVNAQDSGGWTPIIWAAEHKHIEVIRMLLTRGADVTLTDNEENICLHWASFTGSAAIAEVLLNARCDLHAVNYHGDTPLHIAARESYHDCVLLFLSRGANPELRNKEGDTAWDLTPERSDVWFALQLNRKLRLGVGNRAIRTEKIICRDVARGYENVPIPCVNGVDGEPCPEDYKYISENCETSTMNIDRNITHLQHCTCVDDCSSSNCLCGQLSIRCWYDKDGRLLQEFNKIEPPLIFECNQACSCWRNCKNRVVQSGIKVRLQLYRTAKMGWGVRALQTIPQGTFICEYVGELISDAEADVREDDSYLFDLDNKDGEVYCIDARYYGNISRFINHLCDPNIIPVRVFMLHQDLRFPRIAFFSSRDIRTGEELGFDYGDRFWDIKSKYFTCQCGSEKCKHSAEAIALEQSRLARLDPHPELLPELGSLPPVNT

[13] = target: T4, Histone-arginine methyltransferase CARM1 (Homo sapiens) (UniProt Q86X55); test: Inhibition of CARM1 in human HeLa cells assessed as reduction of H3R17 methylation at 5 uM after 24 hrs by Western blot analysis relative to control; assay type: cell-based
T4 sequence (whole entry): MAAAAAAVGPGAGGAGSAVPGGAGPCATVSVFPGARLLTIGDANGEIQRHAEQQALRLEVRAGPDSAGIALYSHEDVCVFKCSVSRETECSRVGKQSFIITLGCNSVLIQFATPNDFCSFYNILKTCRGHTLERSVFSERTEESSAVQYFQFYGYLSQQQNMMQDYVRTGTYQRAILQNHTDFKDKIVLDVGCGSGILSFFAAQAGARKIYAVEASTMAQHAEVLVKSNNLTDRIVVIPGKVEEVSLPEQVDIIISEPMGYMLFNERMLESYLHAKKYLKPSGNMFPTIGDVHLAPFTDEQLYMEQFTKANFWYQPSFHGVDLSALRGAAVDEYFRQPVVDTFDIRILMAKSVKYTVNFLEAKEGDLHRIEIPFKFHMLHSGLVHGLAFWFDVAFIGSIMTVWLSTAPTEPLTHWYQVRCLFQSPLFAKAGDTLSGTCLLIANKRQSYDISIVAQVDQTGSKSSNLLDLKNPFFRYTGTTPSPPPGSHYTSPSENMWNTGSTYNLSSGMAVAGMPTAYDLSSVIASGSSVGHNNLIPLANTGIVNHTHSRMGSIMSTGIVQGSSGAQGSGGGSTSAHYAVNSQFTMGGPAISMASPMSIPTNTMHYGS

[14] = target: T5, Histone-lysine N-methyltransferase EHMT1 (Homo sapiens, UniProt Q9H9B1); test: Inhibition of recombinant human GLP (951 to 1235) using Histone H3 peptide (1 to 15) as substrate preincubated on ice for 10 mins followed by 5 mins incubation at 30 degC measured 5 mins post substrate addition by mass spectrophotometric analysis
T5 sequence (Q9H9B1 whole entry): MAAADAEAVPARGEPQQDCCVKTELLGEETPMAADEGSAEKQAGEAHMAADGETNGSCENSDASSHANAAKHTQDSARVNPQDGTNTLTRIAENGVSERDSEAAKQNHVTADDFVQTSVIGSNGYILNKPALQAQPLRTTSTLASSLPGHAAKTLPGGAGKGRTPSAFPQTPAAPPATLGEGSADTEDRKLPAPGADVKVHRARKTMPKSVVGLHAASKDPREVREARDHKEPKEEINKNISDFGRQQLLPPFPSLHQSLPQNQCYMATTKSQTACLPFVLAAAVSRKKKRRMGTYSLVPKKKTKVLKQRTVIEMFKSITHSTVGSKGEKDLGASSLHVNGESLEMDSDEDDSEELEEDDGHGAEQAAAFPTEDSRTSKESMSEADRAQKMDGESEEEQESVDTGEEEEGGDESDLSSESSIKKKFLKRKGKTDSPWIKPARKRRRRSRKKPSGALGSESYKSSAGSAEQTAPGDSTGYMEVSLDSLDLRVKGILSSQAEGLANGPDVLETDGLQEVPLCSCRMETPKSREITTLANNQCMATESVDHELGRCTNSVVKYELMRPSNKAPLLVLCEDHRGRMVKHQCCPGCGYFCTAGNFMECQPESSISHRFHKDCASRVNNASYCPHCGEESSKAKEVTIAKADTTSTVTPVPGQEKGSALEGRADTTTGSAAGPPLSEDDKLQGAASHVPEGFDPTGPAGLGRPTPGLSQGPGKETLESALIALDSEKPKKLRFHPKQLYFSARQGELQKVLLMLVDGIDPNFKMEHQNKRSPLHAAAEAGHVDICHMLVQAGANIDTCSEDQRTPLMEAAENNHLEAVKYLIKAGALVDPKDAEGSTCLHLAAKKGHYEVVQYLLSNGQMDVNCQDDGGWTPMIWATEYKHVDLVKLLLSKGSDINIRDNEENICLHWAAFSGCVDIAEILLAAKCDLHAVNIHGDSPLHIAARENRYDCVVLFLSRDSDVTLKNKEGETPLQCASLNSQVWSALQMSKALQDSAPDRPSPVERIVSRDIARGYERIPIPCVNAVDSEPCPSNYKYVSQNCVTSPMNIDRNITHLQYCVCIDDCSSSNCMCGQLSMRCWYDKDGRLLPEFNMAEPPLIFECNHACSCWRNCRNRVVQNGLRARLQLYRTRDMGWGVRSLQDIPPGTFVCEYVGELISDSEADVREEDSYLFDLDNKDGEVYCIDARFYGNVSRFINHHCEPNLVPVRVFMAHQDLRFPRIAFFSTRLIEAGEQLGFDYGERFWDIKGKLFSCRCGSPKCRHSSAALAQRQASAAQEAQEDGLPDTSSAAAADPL

[15] = target: T6, Protein arginine N-methyltransferase 1 (Homo sapiens, UniProt Q99873); test: Inhibition of recombinant GST-tagged PRMT1 (unknown origin) using GST-P3 as substrate after 90 mins by scintillation counting analysis in presence of [3H]AdoMet
[16] = target: T1, Histone-lysine N-methyltransferase EZH2; test: Inhibition of human EZH2 using SAM and histone H3 (16 to 30) as substrate preincubated for 30 mins followed by substrate addition measured after 90 mins by flash plate assay
[17] = target: Histone-lysine N-methyltransferase, H3 lysine-79 specific (Homo sapiens, UniProt Q8TEK3); test: Inhibition of DOT1L in human MCF10A cells assessed as reduction of H3K79 level; assay type: cell-based, MCF-10A
[18] = target: T7, Histone-arginine methyltransferase CARM1 (Homo sapiens, UniProt Q86X55); test: Inhibition of recombinant human GST-tagged CARM1
T7 sequence (Q86X55 whole entry): T4 sequence (whole entry)

[19] = target: T6, Protein arginine N-methyltransferase 1; test: Inhibition of recombinant human GST-tagged PRMT1 using GST-Npl3 as substrate

T1 sequence (Q15910 whole entry): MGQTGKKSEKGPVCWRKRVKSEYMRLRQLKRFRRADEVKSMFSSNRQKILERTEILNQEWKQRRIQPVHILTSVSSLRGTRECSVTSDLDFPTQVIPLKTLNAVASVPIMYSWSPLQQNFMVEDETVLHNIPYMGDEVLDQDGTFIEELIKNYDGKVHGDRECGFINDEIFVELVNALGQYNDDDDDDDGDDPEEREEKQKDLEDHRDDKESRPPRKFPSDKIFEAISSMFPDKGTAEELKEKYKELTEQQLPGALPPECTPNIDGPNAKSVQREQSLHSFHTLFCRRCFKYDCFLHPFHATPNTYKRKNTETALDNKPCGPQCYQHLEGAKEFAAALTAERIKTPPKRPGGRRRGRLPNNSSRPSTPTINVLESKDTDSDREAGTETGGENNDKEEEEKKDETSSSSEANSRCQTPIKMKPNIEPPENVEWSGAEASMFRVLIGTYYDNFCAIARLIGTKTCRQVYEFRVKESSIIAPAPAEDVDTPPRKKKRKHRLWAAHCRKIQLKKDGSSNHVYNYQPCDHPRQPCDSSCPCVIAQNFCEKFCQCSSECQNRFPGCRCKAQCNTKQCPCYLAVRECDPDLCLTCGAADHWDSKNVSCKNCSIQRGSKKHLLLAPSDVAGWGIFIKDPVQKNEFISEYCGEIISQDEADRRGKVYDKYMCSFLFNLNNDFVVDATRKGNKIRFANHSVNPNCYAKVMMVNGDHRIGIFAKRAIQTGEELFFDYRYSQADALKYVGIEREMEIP
T6 sequence (Q99873 whole entry): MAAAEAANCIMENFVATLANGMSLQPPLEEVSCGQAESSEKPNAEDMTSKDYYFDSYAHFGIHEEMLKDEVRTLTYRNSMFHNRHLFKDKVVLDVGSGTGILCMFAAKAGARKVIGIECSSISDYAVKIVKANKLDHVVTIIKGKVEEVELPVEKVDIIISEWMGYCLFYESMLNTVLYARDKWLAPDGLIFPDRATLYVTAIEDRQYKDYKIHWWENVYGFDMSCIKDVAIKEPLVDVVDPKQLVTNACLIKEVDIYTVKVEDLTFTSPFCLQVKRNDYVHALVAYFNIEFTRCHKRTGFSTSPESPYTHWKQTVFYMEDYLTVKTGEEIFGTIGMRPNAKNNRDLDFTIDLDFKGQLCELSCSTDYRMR
Sequence of N-lysine methyltransferase SMYD2 (Q9NRG4 whole entry): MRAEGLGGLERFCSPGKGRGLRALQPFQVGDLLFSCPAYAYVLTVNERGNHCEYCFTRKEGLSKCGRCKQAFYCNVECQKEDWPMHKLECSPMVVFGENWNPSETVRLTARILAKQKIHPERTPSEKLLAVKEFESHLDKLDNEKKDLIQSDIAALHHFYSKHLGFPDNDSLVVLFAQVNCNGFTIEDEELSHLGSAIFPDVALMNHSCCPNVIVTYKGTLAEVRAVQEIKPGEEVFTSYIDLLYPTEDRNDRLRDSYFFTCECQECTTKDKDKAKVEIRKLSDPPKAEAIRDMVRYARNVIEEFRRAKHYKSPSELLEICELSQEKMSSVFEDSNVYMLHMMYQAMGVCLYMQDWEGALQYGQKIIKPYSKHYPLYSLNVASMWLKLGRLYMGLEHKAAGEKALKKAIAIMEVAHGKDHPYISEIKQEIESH
Sequence of Histone-lysine N-methyltransferase, H3 lysine-79 specific (Q8TEK3 whole entry): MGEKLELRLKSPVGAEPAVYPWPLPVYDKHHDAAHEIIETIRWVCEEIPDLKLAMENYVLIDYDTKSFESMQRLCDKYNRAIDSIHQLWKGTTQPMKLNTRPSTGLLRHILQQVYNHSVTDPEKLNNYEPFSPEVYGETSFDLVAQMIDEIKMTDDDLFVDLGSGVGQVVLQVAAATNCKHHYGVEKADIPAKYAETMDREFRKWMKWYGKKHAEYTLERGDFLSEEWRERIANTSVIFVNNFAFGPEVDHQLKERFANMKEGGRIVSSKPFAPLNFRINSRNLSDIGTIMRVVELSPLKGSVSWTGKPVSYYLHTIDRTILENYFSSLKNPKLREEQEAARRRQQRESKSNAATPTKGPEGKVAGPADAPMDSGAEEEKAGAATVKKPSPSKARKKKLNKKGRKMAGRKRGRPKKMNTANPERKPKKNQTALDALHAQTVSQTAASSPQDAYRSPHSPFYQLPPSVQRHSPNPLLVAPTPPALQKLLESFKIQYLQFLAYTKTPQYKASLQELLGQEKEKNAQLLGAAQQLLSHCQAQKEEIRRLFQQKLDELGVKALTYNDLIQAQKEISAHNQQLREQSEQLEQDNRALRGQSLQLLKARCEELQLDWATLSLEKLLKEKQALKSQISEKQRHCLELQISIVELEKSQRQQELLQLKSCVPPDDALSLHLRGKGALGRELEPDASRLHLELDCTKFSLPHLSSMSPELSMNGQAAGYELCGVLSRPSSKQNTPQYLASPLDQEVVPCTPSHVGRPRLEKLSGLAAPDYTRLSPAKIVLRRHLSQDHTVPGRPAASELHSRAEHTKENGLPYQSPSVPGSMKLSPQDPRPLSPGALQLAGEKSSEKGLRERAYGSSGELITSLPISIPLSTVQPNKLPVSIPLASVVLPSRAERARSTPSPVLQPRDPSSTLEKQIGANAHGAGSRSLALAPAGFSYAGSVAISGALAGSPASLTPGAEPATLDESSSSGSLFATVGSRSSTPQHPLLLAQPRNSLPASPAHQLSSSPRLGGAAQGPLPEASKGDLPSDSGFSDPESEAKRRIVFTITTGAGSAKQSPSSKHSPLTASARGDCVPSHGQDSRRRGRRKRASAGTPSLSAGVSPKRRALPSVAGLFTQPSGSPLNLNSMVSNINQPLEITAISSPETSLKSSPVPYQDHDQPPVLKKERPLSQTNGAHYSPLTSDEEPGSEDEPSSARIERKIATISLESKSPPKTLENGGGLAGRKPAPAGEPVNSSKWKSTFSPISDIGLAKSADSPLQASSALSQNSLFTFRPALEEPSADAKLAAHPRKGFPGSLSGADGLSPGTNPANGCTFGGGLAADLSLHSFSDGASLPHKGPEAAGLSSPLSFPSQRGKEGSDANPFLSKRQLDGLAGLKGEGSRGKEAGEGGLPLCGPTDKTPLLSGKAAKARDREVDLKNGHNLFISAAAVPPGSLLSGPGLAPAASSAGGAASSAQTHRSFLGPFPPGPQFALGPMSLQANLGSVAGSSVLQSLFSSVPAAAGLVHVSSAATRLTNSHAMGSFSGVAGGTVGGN
Sequence of Histone-lysine N-methyltransferase EZH2 (Homo sapiens, UniProt Q15910, Y641F) (Q15910 whole entry Y641F): as the sequence (Q15910 whole entry) above, with Y641F counted along it

With `CC(C)N(CCCNC(=O)Nc1ccc(C(C)(C)C)cc1)C[C@H]1O[C@@H](n2ccc3c(N)ncnc32)[C@H](O)[C@@H]1O` the IC50 (REH) was > 10000 nM, the IC50 (cells [1]) was > 10000 nM and the IC50 697 was > 10000 nM. The IC50 (cells [2]) was > 10000 nM, the IC50 (Jurkat) was > 10000 nM and the IC50 (Kasumi 1) was > 10000 nM.
`CCC(CC)n1ccc2c(C(=O)NCc3c(C)cc(C)[nH]c3=O)cc(C#N)cc21` showed an IC50 [3] of 13 nM, an IC50 [4] of 15 nM and a Ki [5] of 13 nM.
With `O=C1COc2c(CCNCCN(C(=O)CCNCCc3ccc(Cl)c(Cl)c3)C3CCCCC3)ccc(O)c2N1` the Kd [6] was 500 nM.
In the case of `CCCc1cc(C)[nH]c(=O)c1CNC(=O)c1cc(-c2ccc(N3CCN(C(C)C)CC3)nc2)cc2c1cnn2C(C)C`, the IC50 [7] is reported as < 10 nM and the Cmax (Mus musculus) is reported as 4.7 µM.
In the case of `O=C1C(Cl)=C(NCCN2CCOCC2)C(=O)c2ncccc21`, the Ratio IC50 (Homo sapiens [8]) is reported as > 6, the Ratio IC50 (Homo sapiens [9]) is reported as 2.5 and the Ratio IC50 (Homo sapiens [10]) is reported as > 6.
`Cc1ccc(/N=C2\CC(=O)c3sc(C)nc3C2=O)cc1` showed an IC50 [11] of 500 nM.
For `CCCc1cc(C)[nH]c(=O)c1CNC(=O)c1cc(-c2ccc(N3CCN(CCCCc4cn(CCN5C(=O)\C(=C/C=C/C=C6/N(CCC(=O)OCOC(C)=O)c7ccc(C(=O)OCOC(C)=O)cc7C6(C)C)C(=O)N(CC)C5=O)nn4)CC3)nc2)cc2c1cnn2C(C)C`, the IC50 [7] was 21 nM.
In the case of `CN1C(=O)[C@@H]2C[C@@]3([C@@]45C[C@H]6C(=O)N(C)[C@@H](CO)C(=O)N6[C@@H]4Nc4ccccc45)c4ccccc4N[C@H]3N2C(=O)[C@@H]1CO`, the IC50 [12] is reported as > 50000 nM.
With `O=c1oc2c(O)c(O)cc3c(=O)oc4c(O)c(O)cc1c4c23` the inhibition [13] was > 50%.
`COc1cc2c(NC3CCN(CCCCCN)CC3)nc(NCCCN(C)C)nc2cc1OCCCCCN` gave an IC50 [14] of 100 nM.
`NCCCN(CC[C@H](N)C(=O)O)C[C@H]1O[C@@H](n2cnc3c(N)ncnc32)[C@H](O)[C@@H]1O` showed an IC50 [15] of 3900 nM.
`Cc1cc(C)c(CNC(=O)c2cc(-c3ccc4c(c3)OCCO4)nc3c2cnn3C(C)C)c(=O)[nH]1` gave an IC50 [16] of 620 nM.
Compound `CC(C)N(CCCNC(=O)Nc1ccc(C(C)(C)C)cc1)C[C@H]1O[C@@H](n2cc(Br)c3c(N)ncnc32)[C@H](O)[C@@H]1O` has an IC50 [17] of 8.8 nM.
`COc1ccc(/N=N/c2c(S(=O)(=O)O)cc3cc(Nc4nc(Cl)nc(Cl)n4)ccc3c2O)cc1` gave an IC50 [18] of 2600 nM and an IC50 [19] of 4200 nM.
